Key:
Kv7.1 = Kv7.1 (Homo sapiens, UniProt P51787); test: G(V) shift of Kv7.1 expressed in Xenopus laevis oocytes, two-electrode voltage-clamp; format: cell-based; conditions: Kv7.1, 70 μM, pH 7.4
Description: (§1) cDNAs encoding human Kv7.1 (GEnBAnk Acc. No. NM_000218) and KCNE1 (NM_000219) were subcloned into the expression vectors pGEM or pXOOM, containing the 5′- and 3′-untranslated regions for Xenopus laevis β-globin as well as a poly-A segment (Jespersen et al., Biotechniques 32, 536-538, 540 (2002)). The truncated KCNE1 construct KCNE1ΔC was constructed by introducing a Stop codon at position 67 using Quikchange site-directed mutagenesis kit (Qiagen). The construct was fully sequenced to ensure proper mutation and absence of unwanted mutations (sequencing by Genewiz). The concatemers E1-Kv7.1-Kv7.1 and E1-Kv7.1 were provided by Dr. R. S. Kass at Columbia University, and can be prepared as described in Chan et al. Journal of General Physiology 132(2), 135-144, (2012)). The E1-Kv7.1 construct was made by linking the C-terminus of KCNE1 to the N-terminus of KCNQ1. The E1-Kv7.1-Kv7.1 construct was made by digesting the E1-Kv7.1 and a Kv7.1-Kv7.1 dimer with Xho1 and inserting the 2-kb fragment from the Kv7.1-Kv7.1 dimer digest into the cut KCNE1-Kv7.1 construct. The DNA encoding E1-Kv7.1-Kv7.1 and E1-Kv7.1 were in the pGEM vector and contained mutations to make the constructs suitable for voltage-clamp fluorometry recordings (Wang et al., J Biol Chem 273, 34069-34074 (1998)). The original KCNE1 and Kv7.1 sequences were therefore removed, one at a time, from the pGEM vector using different restriction enzymes (New England Biolabs). Sequences were separated using gel electrophoresis and harvested using Qiagen gel extraction kit. Corresponding wild type sequences were ligated into the construct using T4 Ligase (New England Biolabs). To ensure correct sequence the constructs were sequenced (Genewiz) and tested with different restriction enzymes in combination with gel electrophoresis to measure length and conformation of the gene. cRNA for injection of all constructs was prepared from linearized DNA using the T7 mMessage mMachine transcription kit (Ambion) according to the manufactures instructions. RNA quality was checked by gel electrophoresis, and RNA concentrations were quantified by UV spectroscopy.
(§2) Xenopus laevis oocytes were isolated and maintained (Bentzen, B. H. et al. Neuropharmacology 51, 1068-1077 (2006)). Approximately 50 nl cRNA (50 ng Kv7.1, KCNE1-Kv7.1-Kv7.1 or KCNE1-Kv7.1 alternatively 25 ng Kv7.1 together with 8 ng KCNE1 or KCNE1ΔC) was injected into each oocyte using a Nanojet microinjector (Drummond). Electrophysiological experiments were made 2-5 days after injection. Currents were measured at room temperature with the two-electrode voltage-clamp technique (CA-1B Dagan amplifier). Currents were sampled at 1-3.3 kHz, filtered at 500 Hz, and not leakage corrected. […] A control solution containing (in mM): 88 NaCl, 1 KCl, 15 HEPES, 0.4 CaCl2, and 0.8 MgCl2 was used. NaOH was added to adjust pH to 7.4, yielding a final sodium concentration of about 100 mM. The holding voltage was generally set to −80 mV. Activation curves were generally elicited by stepping to test voltages between −110 and +60 mV (2-4 s durations and 10 mV increments) followed by a tail voltage of −30 mV. For recordings of Kv7.1 at pH 9 and pH 10, the holding voltage was set to more negative voltages because the largest DHA-induced shifts induced channel opening already at −80 mV. […] Therefore, in arachidonyl amine experiments a brief hyperpolarizing pulse of 50 ms to −120 mV was introduced between the test voltage and the tail voltage to relief the channels from inactivation.
(§3) Test compounds were dissolved in 99.5% ethanol to a concentration of 100 mM and stored at −20° C. (Börjesson et al., Biophys J 95, 2242-2253 (2008); Börjesson et al., Biophys J 98, 396-403 (2010)). Shortly before experiments, test compounds were diluted in control solution to the desired test concentration. Pure control solution was added to the bath using a gravity-driven perfusion system. […]

Kv7.1/KCNE1 = biological target: T1, Kv7.1/KCNE1 (Homo sapiens, UniProt P51787); test: G(V) shift of Kv7.1 co-expressed with KCNE1 in Xenopus oocytes, two-electrode voltage-clamp; format: cell-based; conditions: 70 μM, pH 7.4; for ΔV1/2 ± SEM (G(V) shift): Kv7.1/E1
T1 construct: expressed in transfected cells; host or cells: Xenopus laevis oocytes (cRNA co-injection)
Description: as §1, §2, §3

intact guinea pig hearts = test: Restoration of QT interval in intact hearts with E4031-induced Long QT; conditions: ECG and ventricular surface action potential
Description: Long QT syndrome was induced in intact guinea pig hearts by administration of the drug E4031, a HERG channel blocker.

in vitro = conditions: human, Caco-2
[1] = listed as N-arachidonoyl taurine

Q: For CCCCC/C=C\C/C=C\C/C=C\C/C=C\CCCC(=O)NCCS(=O)(=O)O [N-AT, N-arachidonoyl taurine], which “ΔV1/2 ± SEM (G(V) shift)” value (Kv7.1; [1]) is on record?
A: Its value is “about −30 mV”.

Q: And the “ΔV1/2 ± SEM (G(V) shift)” value (Kv7.1; listed as N—AT)?
A: Its value is −26.2 ± 2.7 mV.

Q: And the “ΔV1/2 ± SEM (G(V) shift)” value (Kv7.1/KCNE1)?
A: Its value is “about −30 mV”.

Q: And the “ΔV1/2 ± SEM (G(V) shift)” value (Kv7.1/KCNE1; [1])?
A: The value was “about −30 mV”.

Q: And the “ΔV1/2 ± SEM (G(V) shift)” value (Kv7.1/KCNE1; listed as N—AT)?
A: The value was −27.0 ± 2.5 mV.

Q: What about the “G(V) shift of a representative cell (control curve shifted)” value (Kv7.1/KCNE1; Kv7.1/KCNE1) of the same compound?
A: The value was −24 mV.

Q: And the “QT interval in hearts with prolonged QT induced by E4031” value (intact guinea pig hearts)?
A: The value was “restores the QT interval”.

Q: What about the “permeability coefficient (Papp)” value (Caco-2 cells) of the same compound?
A: The value was 22×10^−6 cms^−1.

Q: And the efflux ratio (in vitro)?
A: The efflux ratio was 1.9.

Reference: patent US20170216240A1, “METHODS FOR MODULATING IKS CHANNEL ACTIVITY” (UNIVERSITY OF MIAMI, priority 2014, published 2017)
